Measurements from patent US20070042037A1, “Pharmaceutical composition containing levodopa and carbidopa” (priority 2003, published 2007).

How the values were obtained:
[1] = Dissolution test, continuous-flow dissolution chamber, in vitro release; type: physicochemical; conditions: pH 1.1 artificial gastric juice, 25 ml/min, 37° C., mean of 6 measurements
Experimental: Six samples of a 250 mg preparation (50+200) were tested using a solution at pH 1.1 (artificial gastric juice) in a continuous-flow dissolution chamber (25 ml/min, 37° C.). The following percentages of release during the 24 hours were obtained (each value is the mean of 6 measurements): […]

[2] = in vivo; cited from earlier work
[3] = 3rd hour, 250 mg preparation (50 mg carbidopa+200 mg levodopa, ethylcellulose-coated granules)
[4] = 6th hour, 250 mg preparation (50+200)
[5] = 9th hour, 250 mg preparation (50+200)
[6] = 12th hour, 250 mg preparation (50+200)
[7] = 24th hour, 250 mg preparation (50+200)

| SMILES | In vitro release, % released average [1, 3] | In vitro release, % released average [1, 4] | In vitro release, % released average [1, 5] | In vitro release, % released average [1, 6] | In vitro release, % released average [1, 7] | Time to attain the maximum plasmatic concentration [2] |
| --- | --- | --- | --- | --- | --- | --- |
| C[C@@](Cc1ccc(O)c(O)c1)(NN)C(=O)O [Carbidopa, carbidopa] | 26% | 39% | 51% | 63% | 89% |  |
| N[C@@H](Cc1ccc(O)c(O)c1)C(=O)O [Levodopa, levodopa] | 22% | 43% | 59% | 68% | 90% | 1 to 2 h |
